Where “and” joins values, the source holds several entries; their conditions need not be identical. Equal values may be shown once.
Assays:
Assay type in all cases: in vivo
Tall Fescue = assay: Petri dish seed germination test on Tall Fescue; conditions: Tall Fescue seeds
Protocol: (§1) Place 10 seeds on moistened filter paper in 100 mm petri dishes, with three petri dishes per treatment. Using a pipette, apply 0.01 mL of the solution (water for controls, Pseudomonas for treated) evenly over the top surface of each seed. For the ethylene inhibitor treatment, place a small aluminum weigh boat containing 1 mL inhibitor solution in the petri dish. Ethylene inhibitor solution should be replaced daily. Cover seeds with another sheet of moistened filter paper before closing the petri dish. As needed, moisten the filter paper throughout the experiment with 1 mL of water at a time. Allow plants to germinate and grow for 11 days, removing the filter paper on day 5. Record the number of seeds germinated each day. Image analysis may be used at the end of the experiment to record total root and shoot growth.
(§2) Two species: Tall Fescue and Kentucky Bluegrass
(§3) Three timings of Pseudomonas fluorescens strain D7 application: 0, 3, and 7 days after planting
(§4) Four seed treatments: water (control), Pseudomonas fluorescens strain D7, 1-MCP, Pseudomonas fluorescens strain D7 and 1-MCP combination
(§5) Twelve seeds/petri dish (TF), 40 seeds/petri dish (KB)×3 petri dishes/treatment combination

[1] = test system: Cheatgrass, Bromus tectorum; assay: Petri dish seed germination test on cheatgrass, with Colby analysis; conditions: for %_Germ—14DAP: Petri Dish Run 1, germination at day 14; for %_Germ11DAP: Petri Dish Run 2, germination at day 11, repetitions R1-R3; for %_Germ_8DAP: germination at day 8, Run1 R0 and Run2 R1-R3
Protocol: as §1, with “containing lmL” for “containing 1 mL”
One species: Cheatgrass, Bromus tectorum
as §3, §4
Run 1: 12 seeds/dish, 1 petri dish/treatment combo
Run 2: 10 seeds/dish, 3 petri dishes/treatment combo
A Colby Analysis was carried out for the data obtained in Example 2. The first data set is shown in Table 1 below, where cheatgrass (Bromus tectorum) was treated with Pseudomonas fluorescens strain D7 (D7) and 1-methylcyclopropene (1-MCP) alone or in combination at days 0, 3, and 7 of the treatment period. The percentage of germination was then determined at day 14 of the treatment period.
The Colby equation is a standard method for determining the presence of synergy. The Colby equation is as follows:
[formula] • wherein X and Y are the effects of the active agents (e.g., Pseudomonas fluorescens strain D7 (D7) and 1-methylcyclopropene (1-MCP)) applied alone (expressed as % of control).
The standard Colby equation interpretation is: If Observed Value is greater than the Expected Value, synergy exists. However, based on the goal of reducing germination in this study, the appropriate interpretation here is: If the Observed Value is less than the Expected Value, synergy.

Kentucky Bluegrass = assay: Petri dish seed germination test on Kentucky Bluegrass; conditions: Kentucky Bluegrass seeds
Protocol: as §1, §2, §3, §4, §5

[2] = Petri Dish Run 2 at Day 11, treatment Day 0, mean of repetitions
[3] = Petri Dish Run 2 at Day 11, treatment Day 3, mean of repetitions
[4] = Petri Dish Run 2 at Day 11, treatment Day 7, mean of repetitions
[5] = treatment Day 0, day 8, mean of Run1 and Run2 repetitions
[6] = treatment Day 3, day 8, mean of Run1 and Run2 repetitions
[7] = treatment Day 7, day 8, mean of Run1 and Run2 repetitions

Compound | %_Germ—14DAP ([1]; treatment Day 0) | %_Germ—14DAP ([1]; treatment Day 3) | %_Germ—14DAP ([1]; treatment Day 7) | Day 8% Germ Mean [1, 2] | Day 8% Germ Mean [1, 3] | Day 8% Germ Mean [1, 4] | Day 8% Germ Mean [1, 5] | Day 8% Germ Mean [1, 6] | Day 8% Germ Mean [1, 7] | other results
Pseudomonas fluorescens strain D7 | 58.33% | 83.33% | 75.00% | 56.67% | 76.67% | 73.33% | 31.67% | 73.33% | 65.00% | effect on germination (Tall Fescue): did not affect germination; %_Germ11DAP ([1]; treatment Day 0, listed as D7 Alone): 60% and 50%; %_Germ11DAP ([1]; treatment Day 3, listed as D7 Alone): 100% and 60% and 70%; %_Germ11DAP ([1]; treatment Day 7, listed as D7 Alone): 90% and 60% and 70%; influence of application time on germination outcomes ([1]; application 0, 3 or 7 days after planting): early application being the most effective; %_Germ_8DAP ([1]; treatment Day 3): 83.33% and 100.0% and 60.0% and 50.0%; %_Germ_8DAP ([1]; treatment Day 7): 50.00% and 80.0% and 60.0% and 70.0%; effect on germination (Kentucky Bluegrass): did not affect germination
CC1=CC1 [1-MCP, 1-methylcyclopropene, reference compound] | 75.00% | 25.00% | 100.00% | 86.67% | 83.33% | 83.33% | 81.25% | 61.25% | 75.83% | %_Germ11DAP ([1]; treatment Day 0, listed as 1-MCP alone): 80% and 90%; %_Germ11DAP ([1]; treatment Day 3, listed as 1-MCP alone): 80% and 90%; %_Germ11DAP ([1]; treatment Day 7, listed as 1-MCP alone): 100% and 70% and 80%; %_Germ_8DAP ([1]; treatment Day 0, listed as MCP): 75.00% and 80.0% and 90.0%; %_Germ_8DAP ([1]; treatment Day 7, listed as MCP): 83.33% and 90.0% and 60.0% and 70.0%

From patent US20260262655A1, “INHIBITION OF SEED GERMINATION USING A COMBINATION OF BIOLOGICAL AND CHEMICAL INHIBITORS OF ETHYLENE” (Verdesian Life Sciences U.S., LLC, priority 2023, published 2026)
